One assay has as its system HL60. The assay can be described thus: Anti-cancer action: number of viable cells (ATPlite) after 96 hours of culture. Format: cell-based. Conditions: HL60 human acute myeloid leukemia cell line. On the technique in general: In ATP-based viability assays light output follows the ATP content of the culture.
Another assay has as its system Kasumi-1. The description is as above. Format: cell-based. Conditions: Kasumi-1 human acute myeloid leukemia cell line.
The next assay relates to KU812. Described as above. Conditions: KU812 human chronic myeloid leukemia cell line. Format: cell-based. On the procedure:
(§1) Specifically, OHBFB was added to a medium of various cancer cell lines and the number of viable cells was measured. For comparison, the anti-cancer action of epigallocatechin gallate (hereinafter sometimes referred to as “EGCG”) was also studied similarly.
(§2) Examples of the cancer cell lines include U266 which is a human multiple myeloma cell line, ARH77 which is a human multiple myeloma cell line, RPMI8226 which is a human multiple myeloma cell line, Mec-1 which is a human chronic lymphocytic leukemia cell line, HL60 which is a human acute myeloid leukemia cell line, Kasumi-1 which is a human acute myeloid leukemia cell line, and KU812 which is human chronic myeloid leukemia cell line were used.
(§3) As each of the cancer cell lines, a cell line obtained by subculturing the cells under the conditions of 37° C. and 5% CO2 saturated with water vapor using an RPMI 1640 medium supplemented with a 10% fetal calf serum (FCS), and culturing and maintaining the cells in a logarithmic growth phase.
(§4) EGCG (manufactured by Sigma-Aldrich) was dissolved in ultrapure water to 5 mM, stored at −30° C., and appropriately thawed before use. OHBFB (manufactured by Nagara Bioscience) was dissolved in ultrapure water to 5 mM, stored at −30° C., and appropriately thawed before use.
(§5) Each of the cancer cell lines was suspended in an RPMI 1640 medium supplemented with a 1% FCS, superoxide dismutase (SOD) (5 U/mL), and a catalase (200 U/mL) to 5×10^4 cells/mL, the suspension was seeded at 100 μL/well in a 96-well plate, OHBFB or EGCG at a final concentration of 0, 5, 10, or 25 μM was added thereto, and the cells were cultured for 96 hours. Thereafter, the number of viable cells was measured using a commercially available kit (trade name “ATPlite,” PerkinElmer).

For a further assay, the system named is ARH77. The description is as above. The class given is cell-based. Conditions: ARH77 human multiple myeloma cell line. On the procedure:
as §1, §2, §3, §4, §5

For a further assay, the system named is Mec-1. The assay is described as above. The class given is cell-based. Conditions: Mec-1 human chronic lymphocytic leukemia cell line. On the procedure:
as §1, §2, §3, §4, §5

Assay [1] has as its system U266. The description is as above. Format: cell-based. Conditions: U266 human multiple myeloma cell line. The method, then:
as §1, §2, §3, §4, §5

A further assay relates to RPMI8226. The assay is described as above. Format: cell-based. Conditions: RPMI8226 human multiple myeloma cell line. On the procedure:
as §1, §2, §3, §4, §5

Assay [2] has as its system U266. The assay can be described thus: Anti-cancer activity enhancing action by flavanone (ATPlite cell viability). The class given is cell-based, human. Conditions: U266, flavanone 5 μM with OHBFB 2.5 μM, 96 hours. The method, then: Specifically, U266 which is a human multiple myeloma cell line was suspended in an RPMI 1640 medium supplemented with 1% FCS, SOD (5 U/mL), and a catalase (200 U/mL) to 5×10^4 cells/mL, and the suspension was seeded at 100 μL per well in a 96-well plate. […] As a control, a sample to which the same volume of PBS had been added instead of flavanone was used. As the flavanone, eriodictyol (manufactured by Extrasynthese Corp.), naringenin (manufactured by Tokyo Chemical Industry Co., Ltd.), and hesperetin (manufactured by Wako Pure Chemical Industries, Ltd.) were used. Subsequently, the cell viability was measured using a commercially available kit (trade name “ATPlite,” PerkinElmer).

Assay [3] deals with U266. The experiment in a line: Anti-cancer activity enhancing action by eriodictyol (ATPlite cell viability, isobologram analysis). Format: cell-based, human.
The subject of assay [4] is U266. The experiment in a line: Anti-cancer activity enhancing action by PDE5 inhibitor vardenafil (ATPlite cell viability, isobologram analysis). Format: cell-based. Conditions: Homo sapiens, U-266, 96 h, read-out: IC50 of vardenafil alone.
Experimental: Specifically, a human multiple myeloma cell line U266 was suspended in an RPMI 1640 medium supplemented with 1% FCS, SOD (5 U/mL), and a catalase (200 U/mL) to 5×10^4 cells/mL, and the suspension was seeded at 100 μL per well in a 96-well plate.
Subsequently, vardenafil (manufactured by Cayman Chemical Co.) which is a PDE5 inhibitor was added to a final concentration of 5 μM and the mixture was incubated for 3 hours. […] Thereafter, the cell viability was measured using a commercially available kit (trade name “ATPlite,” PerkinElmer).
In addition, the same studies as described above were performed in the presence of vardenafil alone at final concentrations of 0, 5, 10, 25, 50, and 100 μM.

As to `O=C(O[C@@H]1Cc2c(O)cc(O)cc2O[C@@H]1c1cc(O)c(O)c(O)c1)c1cc(O)c(O)c(O)c1` [EGCG, epigallocatechin gallate], the IC50 (commonly the concentration that gives 50% inhibition) is 9.5 µM with HL60; 9.6 µM with Kasumi-1; 6.2 µM in the assay with KU812; 4 µM with ARH77; 8.3 µM in the assay on Mec-1; 11.8 µM in the assay with U266 [1]. Moreover, the IC50 with RPMI8226 was found to be 11.1 µM.
With `O=C1C[C@@H](c2ccc(O)c(O)c2)Oc2cc(O)cc(O)c21` [eriodictyol], the “cell viability: enhancement of OHBFB anti-cancer activity by flavanone” value in the assay with U266 [2] is “enhance the anti-cancer activity of OHBFB”. In the assay on U266 [3] (Homo sapiens, U-266, 96 h, read-out: IC50 of eriodictyol alone), the IC50 turned out to be 89.4 µM. Moreover, the “combined use of OHBFB and eriodictyol (isobologram analysis)” value in the assay with U266 [3] (U266, isobologram) is listed as “synergistically enhances the anti-cancer activity of OHBFB”.
Regarding `COc1ccc([C@@H]2CC(=O)c3c(O)cc(O)cc3O2)cc1O` [hesperetin], the “cell viability: enhancement of OHBFB anti-cancer activity by flavanone” value in the assay on U266 [2] is “enhance the anti-cancer activity of OHBFB”.
Still for that read-out and setting: next, `O=C1C[C@@H](c2ccc(O)cc2)Oc2cc(O)cc(O)c21` [naringenin]: “enhance the anti-cancer activity of OHBFB”.
For `CCCc1nc(C)c2c(=O)[nH]c(-c3cc(S(=O)(=O)N4CCN(CC)CC4)ccc3OCC)nn12` [vardenafil], the concentration for half-maximal inhibition (IC50) in the assay on U266 [4] was found to be 92.7 µM.

The values above are taken from patent publication US20200230100A1, “AGONIST OF 67 KDA LAMININ RECEPTOR AND UTILIZATION THEREOF” (priority 2017, published 2020).
